Assay [1] deals with bromodomain of SMARCA2 protein (Homo sapiens (Human), UniProt P40337+P51531). Nature of the assay: SMARCA2 bromodomain ternary binding TR-FRET assay (with VCB). Particulars: with saturating VCB (5 μM); read-out: IC50 (SM 2_T) ternary binding potency in SMARCA2 FRET assay. From the text:
Recombinant bromodomain of SMARCA2 protein was purchased from Active Motif (Catalog #: 31449). VHL/ElonginB/ElonginC (VCB)N-terminal his6-tagged VHL (“his6” disclosed as SEQ ID NO: 4) (uniprot accession number P40337; M54-D213; […] […] […] (SEQ ID NO: 1)), Elongin B (Q15370; M1-K104; […] […] (SEQ ID NO: 2)), Elongin C (Q15369; M17-C112; […] […] (SEQ ID NO: 3)) complex were co-expressed and the complex was purified by Ni-affinity, TEV protease was then used to remove his6-tagged (SEQ ID NO: 4), and the complex was further purified by size-exclusion chromatography before use.
The inhibitory activity of compounds was evaluated in vitro using TR-FRET assay with white 384-well low volume microplate (PerkinElmer ProxiPlate Plus), in which the compound competes the same binding site with the ligand, and thus lead to dose-dependent TR-FRET signal reduction. The cooperativity of the compounds for ternary complex formation with E3 ligase was evaluated in the absence or presence of saturating concentrations of VCB. Testing compounds were dissolved in DMSO at […] and tested in 9-dose IC50. The assay mixture was prepared by mixing SMARCA2 (10 nM final), biotinylated probe (25 nM final), and assay buffer or VCB (5 μM) in 1×AlphaLISA Epigenetics Buffer (PerkinElmer AL008F) with 1 mM TCEP. The compounds in DMSO were added to each well in 3-fold serial dilution by dispenser (TECAN D300E) and incubate for 20 minutes at room temperature before addition of detection reagents, Lance Eu W1024 anti-6×His (0.6 nM final, PerkinElmer AD0110) and Streptavidin Surelight APC (6 nM final, PerkinElmer CR130-100). The plate was then sealed and further incubated at 4° C. overnight in dark, and then was read by Envision multimode plate reader (PerkinElmer, 2102-0010). The ratio of florescence signal at 665/620 was used in data analysis. Percentage inhibition was calculated by % inhibition=100×(FDMSO-F)/(FDMSO-FPC), in which FDMSO is DMSO control, and FPC is positive control. IC50 values were determined from dose response curve by fitting the percent inhibition against compound concentration using GraphPad Prism software.
A general note: In TR-FRET formats the signal depends on donor and acceptor labels being close together.

In assay [2] the target is T1, SMARCA2 (Homo sapiens (Human), UniProt P51531). Nature of the assay: In Cell Western SMARCA2 degradation in NCIH520 cells. The class given is cell-based. Conditions: for DC50: read-out: DC50 (SM2_H520) SMARCA2 degradation potency. The method, then:
(§1) Compound titration and cell culture: Compounds were dissolved in DMSO to make 10 mM stock and 3-fold series dilutions were further conducted keeping the highest concentration 10 μM. NCIH1693 and NCIH520 cells were maintained in PRMI 1640 medium (Corning Cellgro, Catalog #:10-040-CV) supplemented with 10% v/v FBS (GE Healthcare, Catalog #: SH30910.03) by splitting 1:3 twice a week.
(§2) To determine SMACRA2 and SMARCA4 protein degradation DC50 values in NCIH1693 and NCIH520 cells by In Cell Western (ICW) analysis. Cells were trypsinized and 30 thousand cells/well were seeded into 384-well plates and were allowed to grow for 5 hours at 37° C. Eight-point, 3-fold serial dilutions of compounds from 10 mM stocks were added to the cells (using digital Dispenser D300-Tecan, keeping highest concentration 10 μM and normalizing with DMSO at the highest dispensed volume). Plates were incubated at 37° C. for overnight (maximum 18 hours). Cells incubated with DMSO was used as a vehicle control.
(§3) To perform In Cell Western, medium was removed from all the wells leaving cells attached to the surface. After removing the medium, cells were fixed within the plates with 40 μL of 4% formaldehyde by incubating at room temperature for 30 minutes, and then permeabilized with wash buffer (1×PBS with 0.1% Triton X-100) by washing the plate 5 times with 50 μL/well. Before labeling with primary antibodies, cells were blocked with 30 μL/well of blocking buffer (Licor Odyssey blocking buffer PBS #927-40000) for 30 minutes at room temperature. To measure SMARCA2 or SMARCA4 proteins, cells were labeled with 20 μL/well of anti SMARCA2 or SMACRA4 antibodies (Cell Signaling BRM #11966S 1:1000, Cell Signaling BRG #49360S 1:1000) diluted in Li-Cor Odyssey blocking buffer-PBS #927-40000, followed by overnight incubation at 4° C.
(§4) The next day, plates were washed 5×5 minutes with 50 μL/well of washing buffer to remove all the excess primary antibody and then 20 μL from a mixture of secondary antibody and fluorescent DNA specific dye (Goat anti rabbit 1:500 IRDye-800CW #92632211, and DRAQ5™ 1:2000-#ab108410) was added to each well. Plates were incubated for 1 hour at room temperature with gentle rocking. Cells were washed 5 times with 50 μL/well wash buffer, followed by one last wash with DI water, followed by 10 mins drying at 37° C. oven before scanning. Plates were scanned using Li-Cor Odyssey CLx imaging system to acquire integrated intensities at 700 nm and 800 nm. SMARCA signals were normalized to total cell count and then these normalized values were used to calculate the percent degradation relative to DMSO control and maximum inhibition. DC50s were calculated by using the GraphPad Prism4 program based on sigmoidal dose response equation ([Inhibitor] vs. normalized response−Variable slope).

The target in assay [3] is T1, SMARCA2. Nature of the assay: In Cell Western SMARCA2 degradation in NCIH1693 cells. The format is cell-based. Conditions: for DC50: read-out: DC50 (SM2_H1693) SMARCA2 degradation potency; for Dmax: NCI-H1693, overnight, read-out: Dmax % (SM2_H1693) maximum SMARCA2 degradation within the concentrations tested. Here is the method:
as §1, §2, §3, §4

In a further assay the test system is NCIH1693 cells. Nature of the assay: Cell proliferation assay (ATPlite) in NCIH1693 cells. The class given is cell-based. Conditions: H1693 cells, day 4; read-out: IC50 (PRO_H1693) antiproliferation potency. The method, then:
One thousand NCIH1693 or NCIH1703 cells per well were seeded in 96 well plate and incubated at 37° C. for 5 hrs. A series of three-fold dilution of compounds from 10 mM stock concentration were added to the cells by using digital Dispenser D300-Tecan, keeping highest concentration 10 μM and normalizing with DMSO at the highest dispensed volume). Cells incubated with DMSO was used as a vehicle control. After compound treatment plates were incubated at 37° C. for 4 days and cell viability was measured by measuring ATP content from the cell lysate using ATPlite Luminescence assay system (PerkinElmer Cat. no #6016941). Percentage of viable cells, relative to DMSO vehicle control and maximum inhibition, was calculated and plotted in Graphpad Prism ([Inhibitor] vs. normalized response−Variable slope) to determine cell proliferation IC50 values on day 4.
(In ATP-based viability assays light output follows the ATP content of the culture.)

The results in this text go back to patent publication US20240018158A1, “BRM TARGETING COMPOUNDS AND ASSOCIATED METHODS OF USE” (Prelude Therapeutics Incorporated, priority 2020, published 2024).

Some results are limits rather than exact numbers.

bromodomain of SMARCA2 protein, sequence (P51531 whole entry, looked up): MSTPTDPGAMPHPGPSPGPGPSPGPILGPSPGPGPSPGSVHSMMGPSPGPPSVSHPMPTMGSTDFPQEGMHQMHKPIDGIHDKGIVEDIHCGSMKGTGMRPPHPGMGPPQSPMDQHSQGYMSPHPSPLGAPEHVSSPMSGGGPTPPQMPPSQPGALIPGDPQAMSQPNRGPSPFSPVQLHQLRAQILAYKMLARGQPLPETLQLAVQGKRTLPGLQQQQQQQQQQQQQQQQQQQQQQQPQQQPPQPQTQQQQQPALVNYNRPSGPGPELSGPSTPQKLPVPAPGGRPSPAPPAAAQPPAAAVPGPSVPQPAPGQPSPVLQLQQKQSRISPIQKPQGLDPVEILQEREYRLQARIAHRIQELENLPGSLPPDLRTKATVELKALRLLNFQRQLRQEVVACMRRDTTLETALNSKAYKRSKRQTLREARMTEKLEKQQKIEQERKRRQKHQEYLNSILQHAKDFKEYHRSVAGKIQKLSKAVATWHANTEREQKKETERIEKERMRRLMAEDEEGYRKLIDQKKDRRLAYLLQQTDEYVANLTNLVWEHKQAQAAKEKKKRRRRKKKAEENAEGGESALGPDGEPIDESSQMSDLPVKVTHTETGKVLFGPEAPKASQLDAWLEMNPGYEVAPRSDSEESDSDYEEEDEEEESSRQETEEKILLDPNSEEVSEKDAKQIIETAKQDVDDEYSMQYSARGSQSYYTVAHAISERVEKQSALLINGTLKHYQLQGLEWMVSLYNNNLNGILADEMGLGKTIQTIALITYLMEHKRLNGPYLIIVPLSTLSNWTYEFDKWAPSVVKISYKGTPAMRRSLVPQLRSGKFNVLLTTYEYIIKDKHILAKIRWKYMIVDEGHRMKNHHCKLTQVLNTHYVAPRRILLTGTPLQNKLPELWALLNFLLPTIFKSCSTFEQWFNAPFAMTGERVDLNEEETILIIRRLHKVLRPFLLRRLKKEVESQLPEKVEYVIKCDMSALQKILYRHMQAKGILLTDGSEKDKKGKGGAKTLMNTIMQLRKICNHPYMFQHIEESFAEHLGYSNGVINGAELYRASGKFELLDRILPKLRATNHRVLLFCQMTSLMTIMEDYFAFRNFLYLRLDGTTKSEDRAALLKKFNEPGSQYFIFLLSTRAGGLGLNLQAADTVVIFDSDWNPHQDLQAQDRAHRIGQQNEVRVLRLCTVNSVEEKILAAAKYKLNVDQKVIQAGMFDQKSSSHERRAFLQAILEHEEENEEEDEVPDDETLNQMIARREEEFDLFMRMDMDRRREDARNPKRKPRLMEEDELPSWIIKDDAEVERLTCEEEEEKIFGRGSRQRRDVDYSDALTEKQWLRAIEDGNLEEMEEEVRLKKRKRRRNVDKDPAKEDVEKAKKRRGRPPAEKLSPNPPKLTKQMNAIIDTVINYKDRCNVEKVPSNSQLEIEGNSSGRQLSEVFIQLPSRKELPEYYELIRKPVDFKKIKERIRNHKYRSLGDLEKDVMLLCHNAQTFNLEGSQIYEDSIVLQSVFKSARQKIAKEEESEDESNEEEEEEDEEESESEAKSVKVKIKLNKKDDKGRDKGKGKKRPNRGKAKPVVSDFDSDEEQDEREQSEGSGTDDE
bromodomain of SMARCA2 protein, sequence (P40337 whole entry, looked up): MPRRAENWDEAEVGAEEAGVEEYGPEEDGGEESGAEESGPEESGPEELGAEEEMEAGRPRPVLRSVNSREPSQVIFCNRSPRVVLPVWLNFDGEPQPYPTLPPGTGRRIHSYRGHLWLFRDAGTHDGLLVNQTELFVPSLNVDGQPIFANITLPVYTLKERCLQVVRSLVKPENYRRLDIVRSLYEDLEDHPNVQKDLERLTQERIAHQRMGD
bromodomain of SMARCA2 protein, sequence (Q15370 whole entry partner, looked up): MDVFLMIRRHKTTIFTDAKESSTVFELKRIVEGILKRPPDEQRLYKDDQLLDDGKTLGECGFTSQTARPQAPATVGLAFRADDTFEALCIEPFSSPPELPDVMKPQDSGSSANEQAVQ
bromodomain of SMARCA2 protein, sequence (Q15369 whole entry partner, looked up): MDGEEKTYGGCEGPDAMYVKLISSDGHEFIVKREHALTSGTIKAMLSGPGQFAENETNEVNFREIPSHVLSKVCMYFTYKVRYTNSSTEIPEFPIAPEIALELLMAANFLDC
T1 sequence (P51531 whole entry): as the sequence (P51531 whole entry, looked up) above

A word on the DC50: it is the concentration at which degradation of the target reaches its halfway point. In the case of `Cc1ncsc1-c1ccc([C@H](C)NC(=O)[C@@H]2C[C@@H](O)CN2C(=O)[C@@H](NC(=O)CN2CCN3c4cc(-c5ccccc5O)nnc4NCC3C2)C(C)(C)C)cc1` (single isomer, unassigned) [Example 1b], the figures for the IC50 (in assay [1]; with NCIH1693 cells) were under 100 nM and 100 to 1000 nM, respectively. The DC50 at SMARCA2 [2] (H520 cells, overnight) is 100 to 1000 nM; at SMARCA2 [3] (H1693 cells, overnight) it was under 100 nM. The Dmax at SMARCA2 [3] is over 75%.
Consider `Cc1scnc1-c1ccc(CNC(=O)[C@@H]2C[C@@H](O)CN2C(=O)[C@@H](NC(=O)CN2CCN3c4cc(-c5ccccc5O)nnc4NCC3C2)C(C)(C)C)cc1` (single isomer, unassigned) [Example 2a], for which the IC50 (in assay [1]; with NCIH1693 cells) was 100 to 1000 nM each time. For the same molecule, the DC50 is 100 to 1000 nM at SMARCA2 [2] (H520 cells, overnight) and 100 to 1000 nM at SMARCA2 [3] (H1693 cells, overnight). Further, the Dmax on SMARCA2 [2] (NCI-H520, overnight, read-out: Dmax % (SM2_H520) maximum SMARCA2 degradation within the concentrations tested) is over 75%; on SMARCA2 [3] it was over 75%.
In the case of `Cc1scnc1-c1ccc(CNC(=O)[C@@H]2C[C@@H](O)CN2C(=O)[C@@H](NC(=O)CN2CCN3c4cc(-c5ccccc5O)nnc4NCC3C2)C(C)(C)C)cc1` (single isomer, unassigned) [Example 2b], the IC50 in assay [1] was under 100 nM; in the assay with NCIH1693 cells, 1000 to 10000 nM. The “Dmax % (SM2_H520) maximum SMARCA2 degradation within the concentrations tested” value on SMARCA2 [2] (H520 cells, overnight) is given as “A (A = Dmax > 75%)”. The DC50 at SMARCA2 [2] (H520 cells, overnight) is 1000 to 10000 nM; on SMARCA2 [3] (H1693 cells, overnight), 1000 to 10000 nM. Besides, at SMARCA2 [3] (H1693 cells, overnight), the “Dmax % (SM2_H1693) maximum SMARCA2 degradation within the concentrations tested” value is “A (A = Dmax > 75%)”.
